Experiments:
[1] = molecular target: T1, Mitogen-activated protein kinase 12 (Homo sapiens) (UniProt P53778); experiment: Inhibition of SAPK3 at 1 uM
T1 sequence (whole entry): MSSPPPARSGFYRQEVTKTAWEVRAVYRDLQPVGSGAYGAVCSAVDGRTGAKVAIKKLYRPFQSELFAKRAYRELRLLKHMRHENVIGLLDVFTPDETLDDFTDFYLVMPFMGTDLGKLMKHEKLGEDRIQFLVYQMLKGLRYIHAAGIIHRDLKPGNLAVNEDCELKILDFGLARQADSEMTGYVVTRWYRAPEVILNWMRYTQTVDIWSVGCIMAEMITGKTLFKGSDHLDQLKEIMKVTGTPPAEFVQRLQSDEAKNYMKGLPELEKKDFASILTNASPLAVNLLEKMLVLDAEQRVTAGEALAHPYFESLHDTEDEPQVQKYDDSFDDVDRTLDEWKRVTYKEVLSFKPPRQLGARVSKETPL

[2] = molecular target: Epidermal growth factor receptor (Homo sapiens) (UniProt P00533); experiment: Inhibition of EGFR at 1 uM; values are per cent of control
Sequence of Epidermal growth factor receptor (Homo sapiens) (P00533 whole entry): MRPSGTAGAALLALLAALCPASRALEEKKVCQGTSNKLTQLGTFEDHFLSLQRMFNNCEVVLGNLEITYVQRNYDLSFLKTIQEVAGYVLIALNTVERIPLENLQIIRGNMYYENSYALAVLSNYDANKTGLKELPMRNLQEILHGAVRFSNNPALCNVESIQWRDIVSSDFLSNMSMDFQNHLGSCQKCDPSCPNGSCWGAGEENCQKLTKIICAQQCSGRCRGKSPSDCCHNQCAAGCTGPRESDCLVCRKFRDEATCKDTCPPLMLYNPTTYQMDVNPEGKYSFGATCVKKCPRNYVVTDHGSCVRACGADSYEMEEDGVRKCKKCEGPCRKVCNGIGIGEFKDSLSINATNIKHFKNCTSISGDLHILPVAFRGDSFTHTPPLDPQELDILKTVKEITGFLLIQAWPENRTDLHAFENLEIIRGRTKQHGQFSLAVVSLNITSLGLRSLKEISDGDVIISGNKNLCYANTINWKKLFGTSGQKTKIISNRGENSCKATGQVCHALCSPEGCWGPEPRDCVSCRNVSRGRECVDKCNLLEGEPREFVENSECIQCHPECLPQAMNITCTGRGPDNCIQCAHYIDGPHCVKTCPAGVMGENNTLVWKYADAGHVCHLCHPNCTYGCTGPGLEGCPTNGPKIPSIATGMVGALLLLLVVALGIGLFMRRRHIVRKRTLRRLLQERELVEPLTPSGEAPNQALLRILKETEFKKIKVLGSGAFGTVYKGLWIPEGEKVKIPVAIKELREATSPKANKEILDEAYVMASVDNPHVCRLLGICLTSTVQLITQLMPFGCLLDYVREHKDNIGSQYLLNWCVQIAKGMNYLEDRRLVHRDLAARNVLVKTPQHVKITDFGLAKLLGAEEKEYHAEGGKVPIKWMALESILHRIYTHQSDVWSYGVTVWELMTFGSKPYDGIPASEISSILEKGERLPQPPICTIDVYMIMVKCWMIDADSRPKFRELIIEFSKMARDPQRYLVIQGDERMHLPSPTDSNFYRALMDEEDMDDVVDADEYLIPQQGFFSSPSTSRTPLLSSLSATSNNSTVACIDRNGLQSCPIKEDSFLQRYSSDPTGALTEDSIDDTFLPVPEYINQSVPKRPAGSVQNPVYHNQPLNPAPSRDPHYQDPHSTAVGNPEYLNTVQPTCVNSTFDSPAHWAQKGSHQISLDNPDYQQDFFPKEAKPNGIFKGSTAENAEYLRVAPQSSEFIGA

[3] = molecular target: Receptor-type tyrosine-protein kinase FLT3 (Homo sapiens) (UniProt P36888); experiment: Inhibition of Flt3 at 1 uM; values are per cent of control
Sequence of Receptor-type tyrosine-protein kinase FLT3 (Homo sapiens) (P36888 whole entry): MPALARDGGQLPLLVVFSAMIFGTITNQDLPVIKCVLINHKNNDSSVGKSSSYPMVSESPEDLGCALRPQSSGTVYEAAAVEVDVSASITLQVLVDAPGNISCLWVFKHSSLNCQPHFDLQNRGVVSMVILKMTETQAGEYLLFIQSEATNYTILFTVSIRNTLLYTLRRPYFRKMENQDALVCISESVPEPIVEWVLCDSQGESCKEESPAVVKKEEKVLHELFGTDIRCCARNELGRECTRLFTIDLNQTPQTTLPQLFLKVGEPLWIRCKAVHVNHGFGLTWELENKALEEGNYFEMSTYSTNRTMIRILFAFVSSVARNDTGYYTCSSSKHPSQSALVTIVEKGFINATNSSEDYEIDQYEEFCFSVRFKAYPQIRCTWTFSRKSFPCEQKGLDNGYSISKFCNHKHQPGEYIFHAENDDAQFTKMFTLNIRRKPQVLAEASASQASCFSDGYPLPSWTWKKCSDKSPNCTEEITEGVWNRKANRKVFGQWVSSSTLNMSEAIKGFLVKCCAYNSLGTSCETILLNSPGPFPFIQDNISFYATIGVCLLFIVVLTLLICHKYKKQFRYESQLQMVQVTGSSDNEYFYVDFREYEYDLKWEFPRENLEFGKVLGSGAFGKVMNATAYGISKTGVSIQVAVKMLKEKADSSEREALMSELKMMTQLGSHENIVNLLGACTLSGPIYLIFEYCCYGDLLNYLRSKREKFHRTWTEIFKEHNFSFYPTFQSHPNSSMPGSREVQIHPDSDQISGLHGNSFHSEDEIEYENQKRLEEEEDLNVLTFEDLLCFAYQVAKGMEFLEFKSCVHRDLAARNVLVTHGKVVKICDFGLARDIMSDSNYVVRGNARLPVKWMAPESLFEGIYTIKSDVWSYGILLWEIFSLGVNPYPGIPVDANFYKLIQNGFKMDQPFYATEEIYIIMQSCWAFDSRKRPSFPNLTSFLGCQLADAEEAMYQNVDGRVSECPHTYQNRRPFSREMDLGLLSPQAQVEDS

[4] = molecular target: 3-phosphoinositide-dependent protein kinase 1 (Homo sapiens) (UniProt O15530); experiment: Inhibition of PDK1 at 1 uM; values are per cent of control
Sequence of 3-phosphoinositide-dependent protein kinase 1 (Homo sapiens) (O15530 whole entry, looked up): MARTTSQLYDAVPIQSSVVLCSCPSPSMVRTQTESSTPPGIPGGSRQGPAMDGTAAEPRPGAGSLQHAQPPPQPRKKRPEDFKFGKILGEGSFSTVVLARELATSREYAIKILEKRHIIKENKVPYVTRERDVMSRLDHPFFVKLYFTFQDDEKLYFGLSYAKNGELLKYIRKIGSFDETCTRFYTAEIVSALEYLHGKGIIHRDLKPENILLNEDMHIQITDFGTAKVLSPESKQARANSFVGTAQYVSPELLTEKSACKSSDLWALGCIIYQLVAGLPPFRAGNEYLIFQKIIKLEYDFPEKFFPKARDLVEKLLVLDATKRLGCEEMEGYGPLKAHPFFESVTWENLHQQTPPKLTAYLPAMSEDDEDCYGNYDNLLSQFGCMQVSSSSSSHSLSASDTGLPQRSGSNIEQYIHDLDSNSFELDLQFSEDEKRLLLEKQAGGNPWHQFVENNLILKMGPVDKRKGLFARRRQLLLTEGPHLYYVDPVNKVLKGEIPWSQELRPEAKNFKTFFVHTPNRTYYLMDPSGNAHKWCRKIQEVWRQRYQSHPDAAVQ

[5] = molecular target: Proto-oncogene tyrosine-protein kinase receptor Ret (Homo sapiens) (UniProt P07949); experiment: Inhibition of Ret at 0.1 uM; values are per cent of control
[6] = molecular target: Receptor tyrosine-protein kinase erbB-4 (Homo sapiens) (UniProt Q15303); experiment: Inhibition of ErbB4 at 1 uM; values are per cent of control
[7] = molecular target: Insulin-like growth factor 1 receptor (Homo sapiens) (UniProt P08069); experiment: Inhibition of IGF1R at 1 uM; values are per cent of control
Sequence of Insulin-like growth factor 1 receptor (Homo sapiens) (P08069 31-736 limits assumed): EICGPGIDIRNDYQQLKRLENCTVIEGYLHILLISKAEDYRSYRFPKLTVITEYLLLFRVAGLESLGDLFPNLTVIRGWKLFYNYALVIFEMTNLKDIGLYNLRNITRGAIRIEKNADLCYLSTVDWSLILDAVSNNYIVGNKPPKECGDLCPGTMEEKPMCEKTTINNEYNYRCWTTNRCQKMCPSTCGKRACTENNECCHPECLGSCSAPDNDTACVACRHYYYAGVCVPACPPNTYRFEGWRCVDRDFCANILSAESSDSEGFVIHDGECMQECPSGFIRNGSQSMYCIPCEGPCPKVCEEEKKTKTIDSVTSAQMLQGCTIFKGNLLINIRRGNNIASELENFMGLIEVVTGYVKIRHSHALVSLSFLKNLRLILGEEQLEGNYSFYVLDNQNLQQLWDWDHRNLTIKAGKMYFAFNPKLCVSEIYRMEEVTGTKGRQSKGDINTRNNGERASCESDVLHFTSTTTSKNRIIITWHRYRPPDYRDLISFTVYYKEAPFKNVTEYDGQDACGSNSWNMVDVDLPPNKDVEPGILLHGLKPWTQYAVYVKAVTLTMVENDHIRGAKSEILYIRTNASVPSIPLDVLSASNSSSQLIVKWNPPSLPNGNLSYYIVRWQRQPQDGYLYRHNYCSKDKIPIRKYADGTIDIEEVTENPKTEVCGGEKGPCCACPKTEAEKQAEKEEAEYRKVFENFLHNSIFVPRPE
Sequence of Insulin-like growth factor 1 receptor (Homo sapiens) (P08069 741-1367 limits assumed): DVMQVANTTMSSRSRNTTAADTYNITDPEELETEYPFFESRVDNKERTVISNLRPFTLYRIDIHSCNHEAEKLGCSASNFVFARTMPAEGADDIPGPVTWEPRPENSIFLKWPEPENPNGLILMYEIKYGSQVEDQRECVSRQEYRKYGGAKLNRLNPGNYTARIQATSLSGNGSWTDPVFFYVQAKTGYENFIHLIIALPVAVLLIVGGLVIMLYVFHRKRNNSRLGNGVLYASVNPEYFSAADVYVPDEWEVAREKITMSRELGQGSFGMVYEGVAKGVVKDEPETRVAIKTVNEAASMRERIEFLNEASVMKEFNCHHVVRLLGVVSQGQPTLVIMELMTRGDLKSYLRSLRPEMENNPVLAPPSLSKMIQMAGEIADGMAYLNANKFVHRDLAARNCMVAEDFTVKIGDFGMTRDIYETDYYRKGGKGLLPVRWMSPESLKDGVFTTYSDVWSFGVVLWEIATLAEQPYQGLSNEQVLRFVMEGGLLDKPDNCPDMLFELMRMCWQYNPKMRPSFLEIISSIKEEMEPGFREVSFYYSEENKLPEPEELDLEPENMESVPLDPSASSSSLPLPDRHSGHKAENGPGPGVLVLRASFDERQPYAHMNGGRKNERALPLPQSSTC

[8] = molecular target: Insulin-like growth factor 1 receptor (Homo sapiens) (UniProt P08069); experiment: Inhibition of IGF1R at 0.1 uM; values are per cent of control
[9] = molecular target: T1, Mitogen-activated protein kinase 12 (Homo sapiens); experiment: Inhibition of SAPK3 at 0.1 uM; values are per cent of control
[10] = molecular target: T2, Protein kinase C iota type (Homo sapiens) (UniProt P41743); experiment: Inhibition of PKCiota at 1 uM; values are per cent of control
T2 sequence (whole entry): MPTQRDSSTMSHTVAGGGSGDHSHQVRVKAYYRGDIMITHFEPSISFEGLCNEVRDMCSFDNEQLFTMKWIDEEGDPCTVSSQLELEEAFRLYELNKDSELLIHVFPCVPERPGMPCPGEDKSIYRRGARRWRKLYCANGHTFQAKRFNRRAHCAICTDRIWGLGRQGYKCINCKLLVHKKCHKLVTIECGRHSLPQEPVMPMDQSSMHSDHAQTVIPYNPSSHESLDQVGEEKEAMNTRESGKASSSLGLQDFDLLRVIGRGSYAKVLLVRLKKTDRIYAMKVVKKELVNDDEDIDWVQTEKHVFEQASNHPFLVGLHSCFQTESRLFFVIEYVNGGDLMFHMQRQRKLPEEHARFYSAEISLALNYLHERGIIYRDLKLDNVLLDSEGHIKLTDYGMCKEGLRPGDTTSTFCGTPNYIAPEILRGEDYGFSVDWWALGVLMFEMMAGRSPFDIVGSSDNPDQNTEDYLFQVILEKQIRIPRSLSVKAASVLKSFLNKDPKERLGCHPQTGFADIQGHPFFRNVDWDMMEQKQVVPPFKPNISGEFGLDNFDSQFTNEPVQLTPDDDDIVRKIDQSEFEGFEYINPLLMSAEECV

[11] = molecular target: Mitogen-activated protein kinase 14 (Homo sapiens) (UniProt Q16539); experiment: Inhibition of SAPK2a at 0.1 uM; values are per cent of control
Sequence of Mitogen-activated protein kinase 14 (Homo sapiens) (Q16539 whole entry): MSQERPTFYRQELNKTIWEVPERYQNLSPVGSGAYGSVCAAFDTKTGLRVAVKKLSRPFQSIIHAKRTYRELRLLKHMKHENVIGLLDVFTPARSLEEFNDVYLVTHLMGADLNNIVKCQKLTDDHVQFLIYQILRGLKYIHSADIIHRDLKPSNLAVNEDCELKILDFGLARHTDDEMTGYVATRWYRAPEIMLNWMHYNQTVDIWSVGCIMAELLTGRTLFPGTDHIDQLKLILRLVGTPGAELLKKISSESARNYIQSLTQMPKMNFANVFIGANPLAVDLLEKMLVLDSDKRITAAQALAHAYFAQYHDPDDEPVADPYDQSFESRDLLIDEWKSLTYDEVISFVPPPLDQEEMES

[12] = molecular target: T3, Dual specificity mitogen-activated protein kinase kinase 7 (Homo sapiens) (UniProt O14733); experiment: Inhibition of MKK7beta at 0.1 uM; values are per cent of control
T3 sequence (whole entry): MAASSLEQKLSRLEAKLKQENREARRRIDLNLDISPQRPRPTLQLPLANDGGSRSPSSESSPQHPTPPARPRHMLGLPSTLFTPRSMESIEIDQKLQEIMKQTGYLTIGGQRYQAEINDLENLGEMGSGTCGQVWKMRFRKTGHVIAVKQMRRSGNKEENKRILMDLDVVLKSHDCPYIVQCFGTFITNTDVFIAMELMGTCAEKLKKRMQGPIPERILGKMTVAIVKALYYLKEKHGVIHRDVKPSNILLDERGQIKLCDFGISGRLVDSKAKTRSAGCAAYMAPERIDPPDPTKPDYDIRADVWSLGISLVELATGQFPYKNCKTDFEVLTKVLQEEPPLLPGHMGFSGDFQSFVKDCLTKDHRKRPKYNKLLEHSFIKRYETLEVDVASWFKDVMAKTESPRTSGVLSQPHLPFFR

[13] = molecular target: MAP kinase-activated protein kinase 2 (Homo sapiens) (UniProt P49137); experiment: Inhibition of MAPKAP-K2 at 0.1 uM; values are per cent of control
Sequence of MAP kinase-activated protein kinase 2 (Homo sapiens) (P49137 whole entry, looked up): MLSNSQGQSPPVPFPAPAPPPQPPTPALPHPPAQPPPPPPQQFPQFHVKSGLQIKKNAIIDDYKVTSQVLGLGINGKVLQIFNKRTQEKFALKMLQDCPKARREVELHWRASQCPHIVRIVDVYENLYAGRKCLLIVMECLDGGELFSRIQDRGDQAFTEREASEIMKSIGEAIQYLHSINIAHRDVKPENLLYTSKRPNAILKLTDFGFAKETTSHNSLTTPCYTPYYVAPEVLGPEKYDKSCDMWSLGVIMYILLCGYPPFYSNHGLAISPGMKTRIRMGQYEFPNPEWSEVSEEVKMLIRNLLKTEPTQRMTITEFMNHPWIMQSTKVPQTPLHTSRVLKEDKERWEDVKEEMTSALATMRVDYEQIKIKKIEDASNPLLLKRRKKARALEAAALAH

SMILES	inhibition [1] [%]	residual activity [2] [%]	residual activity [3] [%]	residual activity [4] [%]	residual activity [5] [%]	residual activity [6] [%]	residual activity [7] [%]	residual activity [8] [%]	residual activity [9] [%]	residual activity [10] [%]	residual activity [11] [%]	residual activity [12] [%]	residual activity [13] [%]
Cc1ccc2cc(-c3n[nH]c4ccc(NC5CCN(Cc6ccccc6)CC5)cc34)[nH]c2c1	95	-8	0	40	0	10	16	52	104	90	89	103	104
Cc1ccc2cc(-c3n[nH]c4ccc(NC5CCNC5)cc34)[nH]c2c1 (stereo unspecified)	82	99	10	10	8	81	36	98	92	76	105	98	98

— ChEMBL document CHEMBL1681705, “Optimisation of ITK inhibitors through successive iterative design cycles” (Bioorg Med Chem Lett, 2011)
